Test results: US20250032486A1, “COMBINATION OF 5-AMINO-2,3-DIHYDRO-1,4-PHTALAZINEDIONE AND A 6'-METHOXYCINCHONAN-9-OL FOR USE IN THE TREATMENT OF CORONAVIRAL INFECTIONS” (METROPHARM AG, priority 2021, published 2025)
Where a name gives a salt, the structure may show the parent alone. Read-outs that look alike come from different tables or passages of the source.

Tests used:
3-nitrotyrosine = conditions: ex vivo lung, cigarette smoke; cited from earlier work
SARS-CoV-2 [1] = assay type: cell-based
SARS-CoV-2 [2] = conditions: from WO 2021/249667 and WO 2021/219244; cited from earlier work

## Nc1cccc2c(=O)[nH][nH]c(=O)c12.[Na] [5-amino-2,3-dihydro-1,4-phthalazinedione sodium salt]
3-nitrotyrosine
  reduction of 3-nitrotyrosine: nearly complete reduction
SARS-CoV-2 [1]
  amount of SARS-CoV-2 RNA copies (qRT-PCR-amplified RdRp, in relation to untreated cells): dose-dependent reduction
SARS-CoV-2 [2]
  inhibition of the replication of SARS-CoV-2 in vitro: dose-dependently inhibit

## C=C[C@H]1C[N@@]2CC[C@H]1C[C@@H]2[C@@H](O)c1ccnc2ccc(OC)cc12 [quinidine sulfate]
SARS-CoV-2 [1]; Example 3, Calu-3 cells, 3 days, luminol sodium salt 500/250/125 μM, quinidine sulfate 10/1/0.1 μM, alone and combined, n=2
  amount of SARS-CoV-2 RNA copies (qRT-PCR-amplified RdRp, in relation to untreated cells): dose-dependent reduction

## C=C[C@H]1CN2CC[C@H]1C[C@@H]2[C@@H](O)c1ccnc2ccc(OC)cc12 [quinidine, (+)-(9S)-6′-methoxycinchonan-9-ol]
SARS-CoV-2 [2]
  inhibition of the replication of SARS-CoV-2 in vitro: Such an effect was also described

## C=C[C@H]1C[N@@]2CC[C@H]1C[C@H]2[C@H](O)c1ccnc2ccc(OC)cc12 [quinine sulfate]
SARS-CoV-2 [1]; Example 1, Calu-3 cells, 3 days, luminol sodium salt 500/250/125 μM, quinine sulfate 10/1/0.1 μM, alone and combined, n=3
  amount of SARS-CoV-2 RNA copies (qRT-PCR-amplified RdRp, in relation to untreated cells): dose-dependent reduction

## C=C[C@H]1CN2CC[C@H]1C[C@H]2[C@H](O)c1ccnc2ccc(OC)cc12 [quinine, (−)-(8a,9R)-6′-methoxycinchonan-9-ol]
SARS-CoV-2 [2]
  inhibition of the replication of SARS-CoV-2 in vitro: Such an effect was also described
